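Cells were grown in 96-well plates and exposed to each compound for 48 hours at five concentrations; endpoints were interpolated linearly between bracketing concentrations, or set to the highest concentration if not reached. Definition used: TGI = concentration required for complete inhibition of growth.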
Tests used:
Assay in all cases: NCI tumour cell line growth inhibition, 48 h
HCT-116 colon = system: HCT-116 colon
UACC-62 melanoma = system: UACC-62 melanoma
HCC-2998 colon = system: HCC-2998 colon
HOP-62 NSCLC = system: HOP-62 NSCLC
SK-MEL-2 melanoma = system: SK-MEL-2 melanoma
HCT-15 colon = system: HCT-15 colon
UACC-257 melanoma = system: UACC-257 melanoma
DU-145 prostate = system: DU-145 prostate
MCF7 breast = system: MCF7 breast
K-562 leukemia = system: K-562 leukemia

| Structure (SMILES) | TGI (HCT-116 colon) [µM] | TGI (UACC-62 melanoma) [µM] | TGI (HCC-2998 colon) [µM] | TGI (HOP-62 NSCLC) [µM] | TGI (SK-MEL-2 melanoma) [µM] | TGI (HCT-15 colon) [µM] | TGI (UACC-257 melanoma) [µM] | TGI (DU-145 prostate) [µM] | TGI (MCF7 breast) [µM] | TGI (K-562 leukemia) [µM] |
| --- | --- | --- | --- | --- | --- | --- | --- | --- | --- | --- |
| CCN(CC)CCC(=O)c1ccc(Sc2ccc(F)cc2)cc1 | 33.6 | 31.1 | 89.6 | 41.4 | 45.1 | 33.4 | 31 | 36.1 | 31 | > 100 |
| COc1cc(C(=O)/C=C/c2ccc(OCCSCCCCCCCCCCSCCOc3ccc(/C=C/C(=O)c4cc(OC)c(OC)c(OC)c4)cc3)cc2)cc(OC)c1OC | > 100 | > 100 | > 100 | > 100 | > 100 | > 100 | – | > 100 | > 100 | > 100 |
| O=C(c1cc2ccccc2[nH]1)N1C2CCC1CN(CCOC(c1ccc(F)cc1)c1ccc(F)cc1)CC2 (stereo unspecified) | > 100 | > 100 | > 100 | > 100 | > 100 | > 100 | > 100 | > 100 | > 100 | > 100 |
| O=[N+]([O-])c1ccc2nc(Cl)n[n+]([O-])c2c1 | 25.8 | 27.9 | 30.3 | 30.9 | 29.2 | 29.7 | 29.3 | 31.7 | 20 | 2.74 |
| c1ccc2c(CN3CCN(Cc4c[nH]c5ccccc45)CC3)c[nH]c2c1 | 28.6 | 29.9 | 3.29 | 31.2 | 31.5 | 44.4 | 27.5 | 40.7 | 36.9 | 39.7 |
| COc1ccc(CC2C3=C(CCN2C(=O)C2CCC2)CC2(CC3)OCCO2)cc1O (stereo unspecified) | > 100 | > 100 | > 100 | > 100 | > 100 | 46.2 | > 100 | 61.6 | > 100 | 84.4 |
| CCCCc1ccc(Nc2nc(Cl)c3ncn(COCCOC(C)=O)c3n2)cc1 | 31.7 | 31.9 | 24.5 | 30.8 | 31.5 | 31.6 | 36.4 | 29.7 | 93.7 | 55.5 |
| C=CCNC(=S)N=Nc1c(O)n(CN2CCOCC2)c2ccc([N+](=O)[O-])cc12 | > 100 | > 100 | 90.3 | > 100 | > 100 | > 100 | > 100 | > 100 | > 100 | > 100 |
| CCOc1ccc(N/C(=C(/C(Cl)=C(/Cl)Nc2ccccc2)[N+](=O)[O-])n2nnc3ccccc32)cc1 | 56 | 43.5 | > 100 | 70.3 | 73.7 | 28 | > 100 | > 100 | > 100 | > 100 |
| CC(C)C1OC(N)=C(C#N)C1(C#N)C#N (stereo unspecified) | > 100 | > 100 | 58 | > 100 | > 100 | – | 96.4 | > 100 | > 100 | > 100 |
| CCCC(=O)NC(Nc1cc(C)ccn1)(C(=O)OCC)C(F)(F)F (stereo unspecified) | > 100 | > 100 | > 100 | > 100 | > 100 | > 100 | > 100 | > 100 | > 100 | > 100 |
| O=C1NC(=S)N/C1=C\c1cc2c(=O)c3ccccc3sc2s1 | > 100 | > 100 | > 100 | > 100 | > 100 | > 100 | > 100 | > 100 | > 100 | > 100 |
| C=C1CCCC2[C@](C)(CC3=C(Cl)C(=O)C=C(OC)C3=O)C(C)CC[C@]12C (stereo partly specified) | 6.43 | 12.7 | 23.9 | 13.5 | 13.5 | 13.9 | 13.6 | 15.2 | 6.18 | 13.1 |
| O=C1c2cccnc2S(=O)(=O)N1c1ccc(Oc2ccccc2)cc1 | > 100 | > 100 | > 100 | > 100 | > 100 | > 100 | > 100 | > 100 | > 100 | > 100 |
| CC1=NN(C(=O)c2ccccc2O)C(=O)/C1=C/c1cccc(O)c1 | > 100 | 2.74 | > 100 | – | > 48.4 | > 100 | > 100 | > 100 | > 100 | > 100 |
| COC(=O)c1c(C)cccc1C1CN=NC12Cc1ccccc1C2=O (stereo unspecified) | > 100 | > 100 | > 100 | > 100 | > 100 | > 100 | > 91.3 | > 100 | > 43.8 | > 100 |

| Structure (SMILES) | TGI (HCT-116 colon) [µM] | TGI (UACC-62 melanoma) [µM] | TGI (HCC-2998 colon) [µM] | TGI (HOP-62 NSCLC) [µM] | TGI (SK-MEL-2 melanoma) [µM] | TGI (HCT-15 colon) [µM] | TGI (UACC-257 melanoma) [µM] | TGI (DU-145 prostate) [µM] | TGI (MCF7 breast) [µM] | TGI (K-562 leukemia) [µM] |
| --- | --- | --- | --- | --- | --- | --- | --- | --- | --- | --- |
| CC(=O)OC(CN1CCN(c2ccccn2)CC1)Cn1sc2nc(C)cc(C)c2c1=O (stereo unspecified) | 30.5 | 30 | 34.4 | 81.1 | 32.2 | 42.2 | 32 | 33.9 | 34 | 94 |
| COc1cc2c(cc1C[C@H]1[C@@H]3C[C@H]4c5c(c6ccccc6n5C)C[C@@H]([C@@H]3CO[C@]1(C)OC(C)=O)N4C)c1c(n2C)C2C[C@H]3C(C(C)=O)=COC[C@H]3[C@H](C1)N2C | 5.39 | 14.6 | 0.246 | 6.29 | 15.2 | 6.25 | 8.01 | > 25 | > 25 | > 25 |
| CCN(CC)Cc1cc(Nc2c3ccccc3nc3c2[nH]c2ccccc23)cc(CN(CC)CC)c1O | 3.33 | 3.02 | 2.27 | 2.26 | 3.24 | 3.4 | 2.86 | 7.99 | 9.07 | > 100 |
| CN(C)CCNc1nc2ccccc2c2c1CCCC2 | 30.2 | 31.1 | 25.6 | 35.8 | 32.5 | > 100 | 29.3 | > 100 | 29.1 | 39.9 |
| COC(=O)CCC(C)[C@H]1CCC2C3C(C[C@H](OC(C)=O)[C@@]21C)[C@@]1(C)CCC2(C[C@H]1C[C@H]3OC(C)=O)OOC1(CCCC1)OO2 (stereo partly specified) | > 100 | – | > 100 | 29.9 | > 100 | > 100 | > 100 | > 100 | > 100 | > 100 |
| O=c1ccn(CC2(CO)CCCC2)c(=O)[nH]1 | > 100 | > 100 | > 100 | > 100 | > 100 | > 100 | > 100 | > 100 | > 100 | > 100 |
| Cc1c2ccnc(C(=O)NCCN(C)C)c2cc2c3cc(O)ccc3n(C)c12 | 6.1 | 1.01 | 2.11 | 2.16 | 1.7 | 4.39 | 4.74 | 0.771 | 5.75 | 2.4 |
| Cc1ccc(S(=O)(=O)CN2C(=O)C(c3ccccc3)(c3ccccc3)C23OC(c2ccc(Cl)cc2)=CC3=O)cc1 (stereo unspecified) | > 10 | > 10 | > 10 | > 10 | > 10 | > 10 | > 10 | > 10 | > 10 | > 10 |
| CCOc1ccc2nc3nc(=O)[nH]c(C)c3c(NCCCN(CC)CC)c2c1 | > 100 | > 100 | > 100 | > 100 | > 100 | > 100 | > 100 | > 100 | > 100 | > 100 |
| CC(=O)OCC(C)C1=C(OC(C)=O)C(=O)C2(C)C/C=C(/C)CC/C=C(\C)CCC(OC(C)=O)C(C)CCC12 (stereo unspecified) | 36 | 28 | 31.2 | 27.5 | 30.6 | 34 | 35.8 | 36.7 | 38.2 | 33.4 |
| O=C(Cn1cc(-c2ccccc2)nn1)NC1CCCCC1 | > 100 | – | > 100 | > 100 | > 100 | > 100 | > 100 | > 100 | > 100 | > 100 |
| COc1cc2nc(Nc3cccc(Br)c3)nc(Nc3cccc(Br)c3)c2cc1OC | 31.4 | 32.8 | 44.6 | 33.6 | 36.1 | 33.3 | – | 34.1 | 32.4 | 62.2 |
| CCN(CC)C(=O)Cn1c(-c2ccccc2)cc2ccccc21 | > 100 | – | > 100 | > 100 | > 100 | > 100 | > 100 | > 100 | > 100 | > 100 |
| N#CC(N)c1ccc(OCCCCCCCCCCOc2ccc(C(N)C#N)cc2)cc1 (stereo unspecified) | > 100 | > 100 | > 100 | – | > 100 | > 100 | > 100 | > 100 | > 100 | > 100 |
| O=C(NC(Cl)(C(F)(F)F)C(F)(F)F)c1ccc(F)cc1 | > 100 | – | > 100 | > 100 | > 100 | > 100 | > 100 | > 100 | > 100 | > 100 |

From PubChem BioAssay (NCI)
